This note sets out measurements from patent publication US6881409B2, “Compositions and methods for promoting nerve regeneration” (Oregon Health and Science University, priority 1997, dated 2005).

The subject of the test is SH-SY5Y human neuroblastoma cells. The test can be described thus: Neurite outgrowth (neuritic process length) of NGF-differentiated SH-SY5Y cells. The test is classed as cell-based. As to the method:
Cell cultures. SH-SY5Y human neuroblastoma cells were maintained in DMEM medium (GIBCO) supplemented with 10% fetal calf serum (SIGMA), 50 IU/mL penicillin, and […] streptomycin (GIBCO) at 37° C. in 7% CO^2. Cells were plated in six-well plates at 1×10^6 cells/well and treated with […] aphidicolin (SIGMA). At five days, cells were washed, treated with nerve growth factor (NGF) (Boehringer Mannheim, Indianapolis, Ind.) at 10 ng/mL (to induce process outgrowth) in the presence or absence of FK506 (1 and 10 nM) (Calbiochem-Novabiochem Int'l., La Jolla, Calif.) and/or geldanamycin (0.1, 1, and 10 nM) (Calbiochem-Novabiochem, La Jolla, Calif.). Media was changed at 96 hours and replaced with fresh media with the compounds (NGF plus FK506 and/or geldanamycin) for an additional 72 hours (total time, 168 hours). The top 50% of axonal lengths were selected for statistical analysis. All experiments were run in duplicate wells and repeated at least twice for reproducibility.
Light morphometry of neurite lengths. For analysis of process length, cells 20 fields per well) were randomly photographed at 72 and 168 hours. Neurite lengths were measured on photographic prints using a Houston Instrument HI-PAD digitizing tablet connected to an IBM XT computer with appropriate software (Bioquant IV, R&M Biometrics, Nashville, Tenn.); only those processes greater than two times the cell body length were measured. Data from identically treated wells were not different and were therefore combined. […] Histograms were compared using a Mann-Whitney U test, which makes no assumptions about the shape of the distribution.
Preparation of FK506 and geldanamycin. FK506 (mol. wt. 822) and geldanamycin (mol. wt. 561) were dissolved in DMEM medium.
In a first set of experiments, SH-SY5Y neuroblastoma cells were plated in 6-well plates with DMEM plus 15% FCS and differentiated with NGF (10 ng/ml). The effects of various concentrations of geldanamycin and FK506 on neurite growth, alone and in combination, were tested.

Consider `C=CC[C@@H]1/C=C(\C)C[C@H](C)C[C@H](OC)[C@H]2O[C@@](O)(C(=O)C(=O)N3CCCC[C@H]3C(=O)O[C@H](/C(C)=C/[C@@H]3CC[C@@H](O)[C@H](OC)C3)[C@H](C)[C@@H](O)CC1=O)[C@H](C)C[C@@H]2OC` [FK506], for which the Mean Length of Top 50% of Neuritic Processes came to 77.8 µm (Table 1, FK506 10 nM + NGF 10 ng/mL, 168 hours); 89.9 µm (Table 2, FK506 1 nM + NGF 10 ng/mL, 168 hours); 82.7 µm (Table 2, FK506 10 nM + NGF 10 ng/mL, 168 hours).
As for `COC1=C2C[C@@H](C)C[C@H](OC)[C@H](O)[C@@H](C)/C=C(\C)[C@H](OC(N)=O)[C@@H](OC)/C=C\C=C(/C)C(=O)NC(=CC1=O)C2=O` [Geldanamycin, geldanamycin], the Mean Length of Top 50% of Neuritic Processes came to 64 µm (Table 1, geldanamycin 1 nM + NGF 10 ng/mL, 168 hours); 54.8 µm (Table 1, geldanamycin 10 nM + NGF 10 ng/mL, 168 hours); 98.1 µm (Table 2, geldanamycin 0.1 nM + NGF 10 ng/mL, 168 hours). Besides, the “effect on length of the processes” value (first set, geldanamycin 10 nM in the presence of NGF) was “no effect”.
For estrogen, the “effect on neurite outgrowth with FK506” value (10 nM with FK506 10 nM) is recorded as “additive effect”. Besides, for the setting “10 nM, without NGF”, the “neurite outgrowth” value is reported as “increased neurite outgrowth”.

B1: NGF: nerve growth factor (Boehringer Mannheim), used to induce process outgrowth (protein, UniProt P01139 122-241, looked up)
Beta-nerve growth factor: SSTHPVFHMGEFSVCDSVSVWVGDKTTATDIKGKEVTVLAEVNINNSVFRQYFFETKCRASNPVESGCRGIDSKHWNSYCTTTHTFVKALTTDEKQAAWRFIRIDTACVCVLSRKATRRG
In the case of B1, the Mean Length of Top 50% of Neuritic Processes came to 54 µm (Table 1 (first set), NGF 10 ng/mL only, 168 hours after treatment) and 70.4 µm (Table 2 (second set), NGF 10 ng/mL only, 168 hours). Moreover, the “mean length of the processes compared to untreated cells” value (first set, NGF 10 ng/mL, 168 hours) is “more than doubled”. Moreover, the “mean neuritic lengths compared to untreated control cells” value (second set, NGF-treated cells) is “more than double”.
